20 compounds from patent US7964607B2, “Pyrazolo[3,4-d]pyrimidine compounds” (Pfizer Inc., priority 2007, dated 2011) can be followed below.

One experiment deals with T1, human recombinant PDE9 enzyme (Homo sapiens, UniProt O76083).
T1 construct: made in house; host or cells: SF-9 insect cells
T1 sequence (O76083 whole entry): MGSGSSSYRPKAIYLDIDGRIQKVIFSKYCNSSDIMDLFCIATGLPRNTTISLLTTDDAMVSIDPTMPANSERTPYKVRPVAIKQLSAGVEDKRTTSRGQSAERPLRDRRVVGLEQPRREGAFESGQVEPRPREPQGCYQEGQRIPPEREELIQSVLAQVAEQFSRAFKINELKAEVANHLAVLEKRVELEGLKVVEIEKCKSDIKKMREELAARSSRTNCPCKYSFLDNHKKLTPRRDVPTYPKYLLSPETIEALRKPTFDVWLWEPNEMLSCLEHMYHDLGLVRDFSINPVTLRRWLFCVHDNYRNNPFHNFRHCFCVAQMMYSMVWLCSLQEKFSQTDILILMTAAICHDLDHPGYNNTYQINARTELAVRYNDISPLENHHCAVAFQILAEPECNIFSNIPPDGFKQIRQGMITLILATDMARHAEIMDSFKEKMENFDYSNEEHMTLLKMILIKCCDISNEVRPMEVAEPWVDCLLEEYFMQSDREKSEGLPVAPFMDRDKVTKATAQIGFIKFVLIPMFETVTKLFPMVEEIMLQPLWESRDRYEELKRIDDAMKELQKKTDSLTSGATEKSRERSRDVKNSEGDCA
In words: Phosphodiesterase 9 (PDE9) inhibitory activity, Scintillation Proximity (SPA) assay. The format is biochemical.
Settings: not given
The procedure: Phosphodiesterase 9 (PDE9) Inhibitory Activity The PDE9 assay was performed using the Phosphodiesterase Scintillation Proximity (SPA) assay (GE Healthcare Life Sciences). […] The human recombinant PDE9 enzyme was generated in SF-9 cells, the cell pellets were sonicated in buffer (20 mM TRIS, 2 mM benzamidine, 1 mM EDTA, 250 mM sucrose, 100 μM PMSF, pH 7.5 with HCl), centrifuged at 40,000×g for 20 min at 4° C. The supernatants were stored at −80° C. […] Test compounds were dissolved in DMSO, diluted in DI H2O and serially diluted in 20% DMSO/80% H2O, for a final concentration of 2% DMSO. For the assay the PDE9 was diluted with assay buffer such that 20% or less of the substrate was hydrolyzed to 5′GMP. Each assay well contained 10 μl of test compound or solvent, 40 μl of [^3H]CGMP and 50 μl of enzyme, background was determined by a high concentration of a PDE inhibitor. The assay was initiated with the addition of the enzyme and carried out at room temperature for 30 min. […] The plates were sealed, vortexed, allowed to set for >300 min, then counted in a Wallac TriLux MicroBeta LSC.
For the compound `C[C@@H]1CN(Cc2ccccc2)C[C@H]1c1nc2c(cnn2C2CCOCC2)c(=O)[nH]1` (racemic) [Example 60, 6-[(3,4-trans)-1-benzyl-4-methylpyrrolidin-3-yl]-1-(tetrahydro-2H-pyran-4-yl)-1,5-dihydro-4H-pyrazolo[3,4-d]pyrimidin-4-one], the concentration for half-maximal inhibition (IC50) is 44.8 nM.

The experiment is the same for the next values; noted with them: human recombinant PDE9 from SF-9 cells; 50 nM [3H]cGMP; room temperature, 30 min; Examples 3-114; read-out: G5678A (U): IC50.
With `CC(C)n1ncc2c(=O)[nH]c([C@@H]3CN(Cc4cnc5ccccc5c4)C[C@H]3C)nc21` (racemic) [Example 34, 1-isopropyl-6-[(3,4-trans)-4-methyl-1-(quinolin-3-ylmethyl)pyrrolidin-3-yl]-1,5-dihydro-4H-pyrazolo[3,4-d]pyrimidin-4-one], the 50% inhibitory concentration (IC50) turned out to be 4.33 nM.
Consider `O=c1[nH]c([C@@H]2CN(Cc3ccccc3)C[C@H]2C(F)(F)F)nc2c1cnn2C1CCCC1` (racemic) [Example 35, 6-[(3,4-trans)-1-benzyl-4-(trifluoromethyl)pyrrolidin-3-yl]-1-cyclopentyl-1,5-dihydro-4H-pyrazolo[3,4-d]pyrimidin-4-one], for which the IC50 is 53.8 nM.
With `CC[C@@H]1CN(Cc2ccccc2)C[C@H]1c1nc2c(cnn2C(C)C)c(=O)[nH]1` (racemic) [Example 39, 6-[(3,4-trans)-1-benzyl-4-ethylpyrrolidin-3-yl]-1-isopropyl-1,5-dihydro-4H-pyrazolo[3,4-d]pyrimidin-4-one], the IC50 stood at 58.1 nM.
Same read-out and setting: the result for `CC[C@@H]1CN(Cc2cnc3ccccc3c2)C[C@H]1c1nc2c(cnn2C(C)C)c(=O)[nH]1` (racemic) [Example 44, 6-[(3,4-trans)-4-ethyl-1-(quinolin-3-ylmethyl)pyrrolidin-3-yl]-1-isopropyl-1,5-dihydro-4-H-pyrazolo[3,4-d]pyrimidin-4-one] reads 10.9 nM; that for `CC[C@@H]1CN(Cc2ccc(OC)nc2)C[C@H]1c1nc2c(cnn2C(C)C)c(=O)[nH]1` (racemic) [Example 45, 6-{(3,4-trans)-4-ethyl-1-[(6-methoxypyridin-3-yl)methyl]pyrrolidin-3-yl}-1-isopropyl-1,5-dihydro-4H-pyrazolo[3,4-d]pyrimidin-4-one], 38.7 nM.
On the same count and under the same terms, for `CC[C@@H]1CN(Cc2ccc3nccnc3c2)C[C@H]1c1nc2c(cnn2C(C)C)c(=O)[nH]1` (racemic) [Example 46, 6-[(3,4-trans)-4-ethyl-1-(quinoxalin-6-ylmethyl)pyrrolidin-3-yl]-1-isopropyl-1,5-dihydro-4H-pyrazolo[3,4-d]pyrimidin-4-one] the value was 8.53 nM.
On to `O=c1[nH]c([C@@H]2CN(Cc3ccc4nccnc4c3)C[C@H]2C(F)(F)F)nc2c1cnn2C1CCCC1` (racemic) [Example 52, 1-cyclopentyl-6-[(3,4-trans)-1-(quinoxalin-6-ylmethyl)-4-(trifluoromethyl)pyrrolidin-3-yl]-1,5-dihydro-4H-pyrazolo[3,4-d]pyrimidin-4-one], for which the half-maximal inhibitory concentration (IC50) was 26 nM.
In the case of `Cc1cnc(CN2C[C@@H](c3nc4c(cnn4C4CCCC4)c(=O)[nH]3)[C@H](C3CC3)C2)cn1` (racemic) [Example 55, 1-cyclopentyl-6-{(3,4-trans)-4-cyclopropyl-1-[(5-methylpyrazin-2-yl)methyl]pyrrolidin-3-yl}-1,5-dihydro-4H-pyrazolo[3,4-d]pyrimidin-4-one], the IC50 was 6.55 nM.
Turning to `O=c1[nH]c([C@@H]2CN(Cc3ccc4nccnc4c3)C[C@H]2C2CC2)nc2c1cnn2C1CCCC1` (racemic) [Example 56, 1-cyclopentyl-6-[(3,4-trans)-4-cyclopropyl-1-(quinoxalin-6-ylmethyl)pyrrolidin-3-yl]-1,5-dihydro-4H-pyrazolo[3,4-d]pyrimidin-4-one], the concentration for half-maximal inhibition (IC50) is 4.81 nM.
Take `CN1C[C@@H](c2nc3c(cnn3C3CCCC3)c(=O)[nH]2)[C@H](C2CC2)C1` (racemic) [Example 57, 1-cyclopentyl-6-[(3,4-trans)-4-cyclopropyl-1-methylpyrrolidin-3-yl]-1,5-dihydro-4H-pyrazolo[3,4-d]pyrimidin-4-one]: the concentration for half-maximal inhibition (IC50) amounted to 122 nM.
Same read-out and setting: the result for `CCn1ncc2c(=O)[nH]c([C@@H]3CN(Cc4ccccc4)C[C@H]3C)nc21` (racemic) [Example 58, 6-[(3,4-trans)-1-benzyl-4-methylpyrrolidin-3-yl]-1-ethyl-1,5-dihydro-4H-pyrazolo[3,4-d]pyrimidin-4-one] reads 334 nM; that for `O=c1[nH]c([C@@H]2CN(Cc3ccccc3)C[C@H]2CC(F)(F)F)nc2c1cnn2C1CCCC1` (racemic) [Example 62, 6-[(3,4-trans)-1-benzyl-4-(2,2,2-trifluoroethyl)pyrrolidin-3-yl]-1-cyclopentyl-1,5-dihydro-4H-pyrazolo[3,4-d]pyrimidin-4-one], 520 nM.
For the compound `C[C@@H]1CN(Cc2ccccc2)C[C@H]1c1nc2c(cnn2C2CCC(F)(F)CC2)c(=O)[nH]1` (racemic) [Example 63, 6-[(3,4-trans)-1-benzyl-4-methylpyrrolidin-3-yl]-1-(4,4-difluorocyclohexyl)-1,5-dihydro-4H-pyrazolo[3,4-d]pyrimidin-4-one], the IC50 is 123 nM.
In the case of `COc1ccc2nccc(CN3C[C@@H](C)[C@H](c4nc5c(cnn5C(C)C)c(=O)[nH]4)C3)c2n1` (racemic) [Example 69, 1-isopropyl-6-{(3,4-trans)-1-[(6-methoxy-1,5-naphthyridin-4-yl)methyl]-4-methylpyrrolidin-3-yl}-1,5-dihydro-4H-pyrazolo[3,4-d]pyrimidin-4-one], the 50% inhibitory concentration (IC50) was 30.7 nM.
Consider `CC(C)n1ncc2c(=O)[nH]c([C@@H]3CN(Cc4ccc5cccc(F)c5n4)C[C@H]3C)nc21` (racemic) [Example 70, 6-{(3,4-trans)-1-[(8-fluoroquinolin-2-yl)methyl]-4-methylpyrrolidin-3-yl}-1-isopropyl-1,5-dihydro-4H-pyrazolo[3,4-d]pyrimidin-4-one], for which the IC50 stood at 10.2 nM.
Regarding `COc1ccc2nccc(CN3C[C@@H](C)[C@H](c4nc5c(cnn5C(C)C)c(=O)[nH]4)C3)c2c1` (racemic) [Example 71, 1-isopropyl-6-{(y)-1-[(6-methoxyquinolin-4-yl)methyl]-4-methylpyrrolidin-3-yl}-1,5-dihydro-4H-pyrazolo[3,4-d]pyrimidin-4-one], the half-inhibitory concentration (IC50) was 16.1 nM.
Take `C[C@@H]1CN(Cc2ccccc2)C[C@H]1c1nc2c(cnn2C2CCC2)c(=O)[nH]1` (racemic) [Example 72, 6-[(3,4-trans)-1-benzyl-4-methylpyrrolidin-3-yl]-1-cyclobutyl-1,5-dihydro-4H-pyrazolo[3,4-d]pyrimidin-4-one]: the IC50 turned out to be 40.1 nM.
As to `CC[C@@H]1CN(Cc2cnc(C)nc2)C[C@H]1c1nc2c(cnn2C2CCOCC2)c(=O)[nH]1` (racemic) [Example 74], the IC50 worked out at 6.14 nM.
For the compound `Cc1ncc(CN2C[C@@H](C)[C@H](c3nc4c(cnn4C4CCC4)c(=O)[nH]3)C2)cn1` (racemic) [Example 83, 1-cyclobutyl-6-{(3,4-trans)-4-methyl-1-[(2-methylpyrimidin-5-yl)methyl]pyrrolidin-3-yl}-1,5-dihydro-4H-pyrazolo[3,4-d]pyrimidin-4-one], the concentration for half-maximal inhibition (IC50) came out at 24.5 nM.

Usually IC50 stands for the concentration that inhibits the measured activity by half.
